Data from patent publication US10086007B2, “Materials and methods for treatment of cystic fibrosis and for induction of ion secretion” (priority 2012, dated 2018).

Key:
Caco-2 cells [1] = assay: Confocal Ca2+ fluorescence microscopy (Fluo-8); format: cell-based
Method: Caco-2 cells are obtained from ATTC and cultured in Dulbecoo's modified Eagle's medium supplemented with 10% fetal calf serum (FCS) and 1% nonessential amino acids at 37° C. and 5% CO2. Caco-2 cells are passaged for 20-25 times and are seeded (2×10^5 cells/dish) on 5 cm petri-dishes and grown until 80% confluence, when the FCS concentration is changed to 5%. Cells are grown for another 10 days before they are used for functional studies.
Caco2 cells grown in 25 mm round coverslips are mounted on the bath chamber RC-21BR attached to series 20 stage adapter (Warner Instruments, CT USA). The cells are maintained at 37° C. using a single channel table top heater controller (TC-324B, Warner Instruments, CT USA). Cells are loaded with the fluorescent calcium indicator Fluo-8 AM dye (Cat #0203, TEFLab, Inc., Austin, Tex. USA) at 0.5 μM concentration at room temperature and incubated for 45 minutes. Confocal laser scanning microscopy is performed using an inverted Fluoview 1000 IX81 microscope (Olympus, Tokyo, Japan) and a U Plan S-Apo 20× objective. Fluorescence is recorded by argon lasers with excitation at 488 nm and emission at 515 nm. The Fluorescent images are collected with scanning confocal microscope. […] Changes are recorded and fluorescence is measured for various cells. […]

small intestine cells = assay: Glucose-induced HCO3- secretion in small intestine cells; format: cell-based; parameters: dose or concentration left out as unconfirmed
Caco-2 cells [2] = assay: Ussing chamber Isc in Caco-2 cells grown on permeable inserts; format: cell-based; conditions: added to the apical side of Caco-2 cells
Method: Caco-2 cells are obtained from ATTC and cultured in Dulbecoo's modified Eagle's medium supplemented with 10% fetal calf serum (FCS) and 1% nonessential amino acids at 37° C. and 5% CO2. […] Cells are grown for another 10 days before they are used for functional studies.

Caco-2 cells [3] = assay: Gramicidin perforated whole cell currents (patch clamp); format: cell-based; parameters: dose or concentration left out as unconfirmed; conditions: in the continued presence of glucose
ileal mucosa = format: cell-based, mouse
From the text: Normally fed, 8-week-old, male NIH Swiss mice are sacrificed by CO2 inhalation, followed by cervical dislocation. The small intestine is gently removed, and the segment is washed and flushed in ice-cold Ringer's solution. Then the mucosa is separated from the serosa and the muscular layers by stripping through the submucosal plane as previously described (Zhang et al. (2007) J Physiol 581(3):1221-1233). Following exsanguinations, ileal mucosa is obtained from a 10 cm segment close to the caecum. All experiments are approved by the University of Florida Institutional Animal Care and Use Committee.
Ion transport studies are performed on ileal sheets. Tissues are then mounted in between the two halves of an Ussing type-Lucite chamber with 0.3 cm^2 exposed surface areas (P2304, Physiologic Instruments, San Diego, Calif., USA). Regular Ringer's solution (115 mM NaCl, 25 mM NaHCO3, 4.8 mM K2HPO4, 2.4 mM KH2PO4, 1.2 mM MgCl2 and 1.2 mM CaCl2) bubbled with 95% O2: 5% CO2 is used bilaterally as bathing solution for the tissues and the temperature is maintained constant at 37° C. The chambers are balanced to eliminate osmotic and hydrostatic forces. Resistance due to fluid is also compensated. The tissues are allowed to stabilize. The basal short-circuit current (Isc) and the corresponding conductance (G) are recorded using a computer controlled voltage/current clamp device (VCC MC-8, Physiologic Instruments).
The tissues are incubated with H-89 for 30 minutes. Increasing concentrations of glucose (0.015-8 mM) are added every 5 minutes and the peak current is noted. Saturation kinetic constant is calculated for the corresponding Km and Vmax for treated and untreated tissues.

NFA-sensitive current = assay: Isc with NSP4 peptide and glucose (FIG. 6); format: cell-based
chloride secretion = assay: Chloride secretion with NSP4 peptide and glucose (FIG. 7); format: cell-based

## O=C(O)CN(CC(=O)O)c1ccccc1OCCOc1ccccc1N(CC(=O)O)CC(=O)O [BAPTA]
Caco-2 cells [1]; pre-incubating the cells 45 minutes with BAPTA
  glucose-stimulated increase in intracellular Ca^2+ after pre-incubation: fails to show a glucose-stimulated increase

## O=C(O)c1cc([N+](=O)[O-])ccc1NCCCc1ccccc1 [NPPB]
Small intestine cells; NPPB
  inhibition of glucose-induced, anion channel-mediated HCO3^− secretion: significant inhibition
Small intestine cells; with NPPB
  glucose-induced, anion channel-mediated HCO3^− secretion: 4.2±0.7 mEq·h^−1·cm^−2

## O=C(O)c1cccnc1Nc1cccc(C(F)(F)F)c1 [NFA, niflumic acid]
Caco-2 cells [2]
  inhibition of glucose-stimulated increase in Isc: significant inhibition
Caco-2 cells [3]
  effect on glucose activated inward current: inhibits the glucose activated inward current
Ileal mucosa; 100 μM to the lumen side, 8 mM glucose
  inhibition of glucose-stimulated increase in Isc: partial inhibition
NFA-sensitive current
  inhibition of anion secretion induced by NSP4 peptide and glucose: not completely inhibited
NFA-sensitive current; NFA 100 μM
  effect on NSP4114-135-stimulated current: abolishes
Chloride secretion
  inhibition of chloride secretion induced by NSP4 peptide and glucose: not completely inhibited

## O=C(CCc1ccc(O)cc1)c1c(O)cc(O)cc1O[C@@H]1O[C@H](CO)[C@@H](O)[C@H](O)[C@H]1O [phlorizin]
Ileal mucosa; tissues pre-treated with phlorizin
  Isc response to increasing glucose in pre-treated tissues: no response to glucose

## O=S(=O)(NCCNC/C=C/c1ccc(Br)cc1)c1cccc2cnccc12 [H89, H-89]
Ileal mucosa; pre-treatment of small intestine cells with PKA inhibitor
  effect on glucose-stimulated net increase in Isc: significant reduction

## CO[C@@H]([C@H](O)[C@H](O)CO)[C@@H](O)C=O [3-OMG, 3-O-methylglucose]
Ileal mucosa; increasing concentration added to lumen side, Michaelis-Menten fit, n=6 tissues
  Vmax of Isc increase: 1.9±0.13 μeq·h^−1·cm^−2
Ileal mucosa; increasing concentration added to lumen side, Michaelis-Menten fit, n=6 tissues, read-out: Km of Isc increase
  Km: 220 ± 70 µM
Caco-2 cells [1]
  intracellular Ca^2+ increase compared to similar concentration of glucose: little increase
